PubChem BioAssay AID1963429 (Molecular Pharmacology Branch, DTP, NCI, 2024)

Tested on: 126254-015-R-J1-PDC complex spheroid growth, % test/control
Experiment: Anticancer human tumor 126254-015-R-J1-PDC patient-derived soft tissue sarcoma cell line growth inhibition [Asc]
Conditions: for IC50: curve of first compound; for viability, T/C: stronger effect = lower value; active = viability on the fitted dose curve at most 10% of control; inactive = the rest
How it was run: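 Tumor cells were grown as multicellular spheroids with stromal HUVEC and mesenchymal stem cells and treated singly or in combination. Concentrations fell in half-log steps from the clinical Cmax, or from 10 microM where none was known.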

[1] = second compound 0.01 µM, first compound 0.00316 µM
[2] = second compound 0.01 µM, first compound 0.01 µM
[3] = second compound 0.01 µM, first compound 0.0316 µM
[4] = second compound 0.01 µM, first compound 0.1 µM
[5] = second compound 0.0316 µM, first compound 0.00316 µM
[6] = second compound 0.0316 µM, first compound 0.01 µM
[7] = second compound 0.0316 µM, first compound 0.0316 µM
[8] = second compound 0.0316 µM, first compound 0.1 µM
[9] = second compound 0.1 µM, first compound 0.00316 µM
[10] = second compound 0.1 µM, first compound 0.01 µM
[11] = second compound 0.1 µM, first compound 0.0316 µM
[12] = second compound 0.1 µM, first compound 0.1 µM
[13] = second compound 0.316 µM, first compound 0.00316 µM
[14] = second compound 0.316 µM, first compound 0.01 µM
[15] = second compound 0.316 µM, first compound 0.0316 µM
[16] = second compound 0.316 µM, first compound 0.1 µM
[17] = second compound 1 µM, first compound 0.00316 µM
[18] = second compound 1 µM, first compound 0.01 µM
[19] = second compound 1 µM, first compound 0.0316 µM
[20] = second compound 1 µM, first compound 0.1 µM
[21] = second compound 0.01 µM, first compound 0.316 µM
[22] = second compound 0.01 µM, first compound 1 µM
[23] = second compound 0.0316 µM, first compound 0.316 µM
[24] = second compound 0.0316 µM, first compound 1 µM
[25] = second compound 0.1 µM, first compound 0.316 µM
[26] = second compound 0.1 µM, first compound 1 µM
[27] = second compound 0.316 µM, first compound 0.316 µM
[28] = second compound 0.316 µM, first compound 1 µM
[29] = second compound 1 µM, first compound 0.316 µM
[30] = second compound 1 µM, first compound 1 µM
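Note: spheroids exposed to compound for seven days.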
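Throughout, for viability, T/C: 100% = DMSO vehicle control wells.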

Cc1nc(N2CCC3(CC2)COC(C)C3N)c(CO)nc1Sc1ccnc(N)c1Cl (stereo not given) + CCN1C(C(=O)NC23CCC(C(=O)O)(CC2)CC3)C(c2cccc(Cl)c2F)C2(C(=O)Nc3cc(Cl)ccc32)C12CCCCC2
0.785 µM: IC50 (second compound 0.949 µM)
0.891 µM: IC50 (second compound 3 µM)
0.759 µM: IC50 (second compound 0.0949 µM)
1.43 µM: IC50 (second compound 0.03 µM)
inactive: viability, T/C (second compound 0.03 µM, first compound 0.00949 µM) 98.5% | viability, T/C (second compound 0.03 µM, first compound 0.03 µM) 87.4% | viability, T/C (second compound 0.03 µM, first compound 0.0949 µM) 81.1% | viability, T/C (second compound 0.03 µM, first compound 0.3 µM) 64.8% | viability, T/C (second compound 0.03 µM, first compound 0.949 µM) 59.5% | viability, T/C (second compound 0.03 µM, first compound 3 µM) 38.8% | viability, T/C (second compound 0.0949 µM, first compound 0.00949 µM) 90.7% | viability, T/C (second compound 0.0949 µM, first compound 0.03 µM) 95.8% | viability, T/C (second compound 0.0949 µM, first compound 0.0949 µM) 86.3% | viability, T/C (second compound 0.0949 µM, first compound 0.3 µM) 63.2% | viability, T/C (second compound 0.0949 µM, first compound 0.949 µM) 47.8% | viability, T/C (second compound 0.0949 µM, first compound 3 µM) 43% | viability, T/C (second compound 0.3 µM, first compound 0.00949 µM) 88.7% | viability, T/C (second compound 0.3 µM, first compound 0.03 µM) 93.5% | viability, T/C (second compound 0.3 µM, first compound 0.0949 µM) 69.9% | viability, T/C (second compound 0.3 µM, first compound 0.3 µM) 60.7% | viability, T/C (second compound 0.3 µM, first compound 0.949 µM) 54.7% | viability, T/C (second compound 0.3 µM, first compound 3 µM) 42.5% | viability, T/C (second compound 0.949 µM, first compound 0.00949 µM) 91.3% | viability, T/C (second compound 0.949 µM, first compound 0.03 µM) 91.2% | viability, T/C (second compound 0.949 µM, first compound 0.0949 µM) 76.8% | viability, T/C (second compound 0.949 µM, first compound 0.3 µM) 59.1% | viability, T/C (second compound 0.949 µM, first compound 0.949 µM) 51.2% | viability, T/C (second compound 0.949 µM, first compound 3 µM) 38.4% | viability, T/C (second compound 3 µM, first compound 0.00949 µM) 98.2% | viability, T/C (second compound 3 µM, first compound 0.03 µM) 87.8% | viability, T/C (second compound 3 µM, first compound 0.0949 µM) 85% | viability, T/C (second compound 3 µM, first compound 0.3 µM) 63.8% | viability, T/C (second compound 3 µM, first compound 0.949 µM) 49.6% | viability, T/C (second compound 3 µM, first compound 3 µM) 39.2%
1.05 µM: IC50 (second compound 0.3 µM)

Cn1ncnc1[C@H]1c2n[nH]c(=O)c3cc(F)cc(c23)N[C@@H]1c1ccc(F)cc1 + CNC(C)C(=O)NC1CN(S(=O)(=O)c2cccc(S(=O)(=O)N3CCC4CCC(C(=O)NC(c5ccccc5)c5ccccc5)N4C(=O)C(NC(=O)C(C)NC)C3)c2)CCC2CCC(C(=O)NC(c3ccccc3)c3ccccc3)N2C1=O
> 0.1 µM: IC50 (second compound 0.01 µM) | IC50 (second compound 0.0316 µM)
0.0562 µM: IC50 (second compound 0.1 µM)
0.01 µM: IC50 (second compound 1 µM)
inactive: viability, T/C (second compound 0.01 µM, first compound 0.000316 µM) 82.1% | viability, T/C (second compound 0.01 µM, first compound 0.001 µM) 82.3% | viability, T/C [1] 78.2% | viability, T/C [2] 79.6% | viability, T/C [3] 77.3% | viability, T/C [4] 63.1% | viability, T/C (second compound 0.0316 µM, first compound 0.000316 µM) 71% | viability, T/C (second compound 0.0316 µM, first compound 0.001 µM) 77.3% | viability, T/C [5] 71% | viability, T/C [6] 61.4% | viability, T/C [7] 56.1% | viability, T/C [8] 58.1% | viability, T/C (second compound 0.1 µM, first compound 0.000316 µM) 67.3% | viability, T/C (second compound 0.1 µM, first compound 0.001 µM) 67.4% | viability, T/C [9] 60.5% | viability, T/C [10] 55.8% | viability, T/C [11] 58.4% | viability, T/C [12] 44.7% | viability, T/C (second compound 0.316 µM, first compound 0.000316 µM) 56% | viability, T/C (second compound 0.316 µM, first compound 0.001 µM) 70.9% | viability, T/C [13] 59.2% | viability, T/C [14] 51.8% | viability, T/C [15] 44.4% | viability, T/C [16] 41% | viability, T/C (second compound 1 µM, first compound 0.000316 µM) 53.2% | viability, T/C (second compound 1 µM, first compound 0.001 µM) 63.7% | viability, T/C [17] 56.2% | viability, T/C [18] 42.4% | viability, T/C [19] 46.8% | viability, T/C [20] 44.1%
0.0131 µM: IC50 (second compound 0.316 µM)

O=C(c1cc(Cc2n[nH]c(=O)c3ccccc23)ccc1F)N1CCN(C(=O)C2CC2)CC1 + CNC(C)C(=O)NC1CN(S(=O)(=O)c2cccc(S(=O)(=O)N3CCC4CCC(C(=O)NC(c5ccccc5)c5ccccc5)N4C(=O)C(NC(=O)C(C)NC)C3)c2)CCC2CCC(C(=O)NC(c3ccccc3)c3ccccc3)N2C1=O
inactive: viability, T/C [3] 97.3% | viability, T/C [4] 89.8% | viability, T/C [21] 94.5% | viability, T/C [22] 82.8% | viability, T/C (second compound 0.01 µM, first compound 3.16 µM) 77.6% | viability, T/C (second compound 0.01 µM, first compound 10 µM) 47.1% | viability, T/C [7] 85.1% | viability, T/C [8] 82.4% | viability, T/C [23] 78.2% | viability, T/C [24] 80.2% | viability, T/C (second compound 0.0316 µM, first compound 3.16 µM) 55.1% | viability, T/C (second compound 0.0316 µM, first compound 10 µM) 46.3% | viability, T/C [11] 66.2% | viability, T/C [12] 77.8% | viability, T/C [25] 75.4% | viability, T/C [26] 59.6% | viability, T/C (second compound 0.1 µM, first compound 3.16 µM) 49.8% | viability, T/C (second compound 0.1 µM, first compound 10 µM) 27.4% | viability, T/C [15] 62.2% | viability, T/C [16] 56.4% | viability, T/C [27] 59.7% | viability, T/C [28] 57.8% | viability, T/C (second compound 0.316 µM, first compound 3.16 µM) 52.9% | viability, T/C (second compound 0.316 µM, first compound 10 µM) 29% | viability, T/C [19] 54.7% | viability, T/C [20] 62.2% | viability, T/C [29] 61.4% | viability, T/C [30] 54.9% | viability, T/C (second compound 1 µM, first compound 3.16 µM) 44.9% | viability, T/C (second compound 1 µM, first compound 10 µM) 22.2%
2.77 µM: IC50 (second compound 0.1 µM)
6.18 µM: IC50 (second compound 0.0316 µM)
1.85 µM: IC50 (second compound 1 µM)
3.61 µM: IC50 (second compound 0.316 µM)
9.05 µM: IC50 (second compound 0.01 µM)

O=C(c1ccc(F)c(F)c1Nc1ccc(I)cc1F)N1CC(O)([C@@H]2CCCCN2)C1 + CNC(C)C(=O)NC1CN(S(=O)(=O)c2cccc(S(=O)(=O)N3CCC4CCC(C(=O)NC(c5ccccc5)c5ccccc5)N4C(=O)C(NC(=O)C(C)NC)C3)c2)CCC2CCC(C(=O)NC(c3ccccc3)c3ccccc3)N2C1=O
0.0852 µM: IC50 (second compound 1 µM)
0.164 µM: IC50 (second compound 0.1 µM)
0.0866 µM: IC50 (second compound 0.316 µM)
inactive: viability, T/C [1] 82.4% | viability, T/C [2] 87.6% | viability, T/C [3] 79.8% | viability, T/C [4] 90.9% | viability, T/C [21] 66.9% | viability, T/C [22] 36% | viability, T/C [5] 84.2% | viability, T/C [6] 72.7% | viability, T/C [7] 67.9% | viability, T/C [8] 67.2% | viability, T/C [23] 55.1% | viability, T/C [24] 33% | viability, T/C [9] 59.7% | viability, T/C [10] 67.3% | viability, T/C [11] 67.5% | viability, T/C [12] 59.6% | viability, T/C [25] 37% | viability, T/C [26] 28.1% | viability, T/C [13] 62.5% | viability, T/C [14] 62.8% | viability, T/C [15] 54.6% | viability, T/C [16] 51.3% | viability, T/C [27] 30.1% | viability, T/C [28] 19.1% | viability, T/C [17] 56.9% | viability, T/C [18] 54.1% | viability, T/C [19] 54.3% | viability, T/C [20] 49.3% | viability, T/C [29] 27% | viability, T/C [30] 21.1%
0.594 µM: IC50 (second compound 0.01 µM)
0.377 µM: IC50 (second compound 0.0316 µM)
